Reference: article PMC6927504, “Screening of House Dust from Chinese Homes for Chemicals with Liver X Receptors Binding Activities and Characterization of Atherosclerotic Activity Using an in Vitro Macrophage Cell Line and ApoE^−/− Mice” (Environmental Health Perspectives, 2019)

Tests used:
[1] = Body weight of ApoE−/− mice; assay type: in vivo, mouse; conditions: 10 and 40 mg/kg BW, 13 weeks
Excerpt: (§1) All experiments related to animals were approved by the institutional animal care and use committee of Peking University and followed the guidelines for animal experiments of the university as well as for experimental animals in China. The biological effect size of the animal experiments was based on the previous paper ([Negro Silva et al. 2017]). C57BL/6 (12 weeks old) and ApoE^−/− mice (12 weeks old) were obtained from the Beijing Vital River Laboratory Animal Technology Company. Mice used in the experiments were acclimated to the housing unit 2 weeks before they were used for experiments, and they were randomly assigned to control or TPHP treatment groups. Five animals were housed to a cage, and mice were acclimatized to the controlled environment (temperature: 22±2°C; relative humidity: 40–60%; artificial lighting: 12 h:12 h light/dark). Mice received diet and drinking water ad libitum. Body weight (BW) was measured every week during the dosing period. Forty-five C57BL/6 mice and 27 ApoE^−/− mice were used in this study. […] Considering that this study assessed the effects of short-term exposure to TPHP, whereas humans are exposed to TPHP over a lifelong period, the present study used exposure doses that were higher than that of human exposure from house dust. […]

[2] = molecular target: T1, human LXRβ (Homo sapiens, UniProt P55055); assay: Yeast two-hybrid assay (LXRβ LBD with coactivator TIF2, β-galactosidase readout)
T1 sequence (P55055 219-460): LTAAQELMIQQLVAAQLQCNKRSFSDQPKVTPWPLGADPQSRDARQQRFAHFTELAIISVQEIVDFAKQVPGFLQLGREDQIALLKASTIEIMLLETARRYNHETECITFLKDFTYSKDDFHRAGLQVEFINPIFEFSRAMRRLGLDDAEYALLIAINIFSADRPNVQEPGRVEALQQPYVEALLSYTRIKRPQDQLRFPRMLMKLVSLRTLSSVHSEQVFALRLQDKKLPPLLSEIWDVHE

[3] = molecular target: T2, human LXRα (Homo sapiens, UniProt Q13133); assay: cell-based
T2 construct: expressed in transfected cells; host or cells: Saccharomyces cerevisiae Y187
T2 sequence (Q13133 205-447): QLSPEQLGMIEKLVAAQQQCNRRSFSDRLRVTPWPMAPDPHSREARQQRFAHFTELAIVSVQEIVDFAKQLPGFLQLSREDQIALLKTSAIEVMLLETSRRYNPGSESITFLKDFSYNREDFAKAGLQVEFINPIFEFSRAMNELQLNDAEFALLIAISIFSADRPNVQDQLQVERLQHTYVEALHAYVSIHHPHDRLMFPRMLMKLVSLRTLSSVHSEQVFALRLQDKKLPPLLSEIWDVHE

[4] = system: ApoE−/− mice; assay: Atherosclerotic lesion analysis (Oil Red O) in ApoE−/− mouse model; assay type: in vivo; conditions: 13 weeks, p<0.01; for Area of the atherosclerotic lesion (en face lipid staining), higher than control: high-fat diet
Excerpt: as §1, with “study. Animal protocol 1: Male C57BL/6 mice (five mice per group) were fed a basic diet (Laboratory Animal Center of the Academy of Military Medical Sciences, China). On Day 0, mice were stimulated with paraffin oil by intraperitoneal injection. From Day 1 to Day 7, mice were exposed to corn oil (control) or TPHP (dissolved in corn oil) at 40 or 200mg/kg BW by daily oral gavage. The volume of the corn oil or TPHP in corn oil administered was 5mL/kg BW. On Day 8, after the mice were anesthetized by sodium pentobarbital via intramuscular injection, peritoneal macrophages were harvested from peritoneal lavage with 4mL pre-warmed DMEM-F12 (containing 10% FBS) using a 25-gauge needle; 5–10 min later, 3–3.5mL peritoneal fluid was collected, and the cells were isolated by centrifuge at 1,000 rpm for 5 min.” for “study.”

[5] = Plasma lipids in ApoE−/− mice; assay type: in vivo, mouse; conditions: 13 weeks, mean±SE
Excerpt: All experiments related to animals were approved by the institutional animal care and use committee of Peking University and followed the guidelines for animal experiments of the university as well as for experimental animals in China. The biological effect size of the animal experiments was based on the previous paper ([Negro Silva et al. 2017]). C57BL/6 (12 weeks old) and ApoE^−/− mice (12 weeks old) were obtained from the Beijing Vital River Laboratory Animal Technology Company. Mice used in the experiments were acclimated to the housing unit 2 weeks before they were used for experiments, and they were randomly assigned to control or TPHP treatment groups. Five animals were housed to a cage, and mice were acclimatized to the controlled environment (temperature: 22±2°C; relative humidity: 40–60%; artificial lighting: 12 h:12 h light/dark). Mice received diet and drinking water ad libitum. Body weight (BW) was measured every week during the dosing period. Forty-five C57BL/6 mice and 27 ApoE^−/− mice were used in this study. Animal protocol 1: Male C57BL/6 mice (five mice per group) were fed a basic diet (Laboratory Animal Center of the Academy of Military Medical Sciences, China). On Day 0, mice were stimulated with paraffin oil by intraperitoneal injection. From Day 1 to Day 7, mice were exposed to corn oil (control) or TPHP (dissolved in corn oil) at 40 or 200mg/kg BW by daily oral gavage. The volume of the corn oil or TPHP in corn oil administered was 5mL/kg BW. On Day 8, after the mice were anesthetized by sodium pentobarbital via intramuscular injection, peritoneal macrophages were harvested from peritoneal lavage with 4mL pre-warmed DMEM-F12 (containing 10% FBS) using a 25-gauge needle; 5–10 min later, 3–3.5mL peritoneal fluid was collected, and the cells were isolated by centrifuge at 1,000 rpm for 5 min. The isolated cells were cultured in DMEM-F12 containing 10% FBS. After 4 h, the medium was changed, and the cells were cultured overnight. The cells were then used for the qRT-PCR, cellular cholesterol efflux assay, and foam cell formation experiment. The exposure period used in the present study was based on previous studies, in which peritoneal macrophages were harvested from mice treated with chemicals for 4–14 d ([Li et al. 2009]; [Saeed et al. 2012]). Considering that this study assessed the effects of short-term exposure to TPHP, whereas humans are exposed to TPHP over a lifelong period, the present study used exposure doses that were higher than that of human exposure from house dust. Animal protocol 2: Because wild-type mice are highly resistant to atherosclerosis, a well-established atherosclerosis model, the ApoE^−/− mouse, was used in the study. The male ApoE^−/− mice (nine mice per group) were fed a high-fat diet (D12108C; Research Diets Inc.) and exposed to corn oil (control) or TPHP (dissolved in corn oil) at 10 or 40mg/kg BW for 13 weeks by oral gavage. Mice were sacrificed 24 h after the last day of exposure with an overdose of sodium pentobarbital via intraperitoneal injection. Because the formation of atherosclerosis lesions required a long time, the exposure period used in the present study was based on previous studies in which the effects of chemicals on formation of atherosclerosis lesions were observed after an exposure period of 12–15 weeks ([Li et al. 2009]; [Negro Silva et al. 2017]; [Shi et al. 2016]). The doses of TPHP used in the ApoE^−/− model mouse referred to previous studies in which mice were treated with TPHP at 50–300mg/kg BW to observe significant adverse effects, including decreased testosterone levels and hypertriglyceridemia ([Chen et al. 2015]; [Morris et al. 2014]).
Treated ApoE^−/− mice ( n=9 per group) were fasted overnight, and heart puncture was used to collect the blood soon after each animal was sacrificed. The blood samples were then centrifuged ( 1,000×g , 10 min, 4°C) to separate the plasma, and the plasma was stored at −80°C . […]

[6] = dust standard reference material SRM2585
[7] = range over indoor dust samples (Table S4)
[8] = 40mg/kg, n=9, p<0.05 vs control

For `O=P(Oc1ccccc1)(Oc1ccccc1)Oc1ccccc1` [TPHP, triphenyl phosphate], the “Body weight versus control” value [1] was “No significant differences”, the “Contribution to the LXRβ-antagonist activity of SRM2585” value [2, 6] was 12.68% and the “Share of the LXRβ-antagonist activity of indoor dust explained by the chemical” value [2, 7] was 0.37–32.60%. For the same molecule, the IC50 [3] was 1480 nM, the “Contribution to the LXRα-antagonist activity of SRM2585” value [3, 6] was 33.83% and the “Share of the LXRα-antagonist activity of indoor dust explained by the chemical” value [3, 7] was 0.19–51.07%. For the same molecule, the “Atherosclerotic lesion area around the aortic root versus control” value ([4]; 10 and 40 mg/kg BW) was “significantly higher lesion area”, the “Area of the atherosclerotic lesion (en face lipid staining), higher than control” value ([4]; 10 mg/kg BW oral gavage) was 41% and the “Area of the atherosclerotic lesion (en face lipid staining), higher than control” value ([4]; 40 mg/kg BW oral gavage) was 83%. For the same molecule, the “Plasma HDL-C” value ([5]; 10mg/kg, n=9) was 1.13 ± 0.05 mmol/L, the “Plasma LDL-C” value ([5]; 10mg/kg, n=9) was 10.53 ± 0.32 mmol/L and the Plasma cholesterol ([5]; 10mg/kg, n=9) was 26.15 ± 1.34 mmol/L. The Plasma triglycerides ([5]; 10mg/kg, n=9) was 0.92 ± 0.06 mmol/L, the “Plasma HDL-C” value ([5]; 40mg/kg, n=9) was 1.29 ± 0.05 mmol/L and the “Plasma LDL-C” value ([5]; 40mg/kg, n=9) was 10.27 ± 0.22 mmol/L. It also gave a Plasma cholesterol [5, 8] of 28.83 ± 1.90 mmol/L and a Plasma triglycerides [5, 8] of 1.06 ± 0.12 mmol/L.
